Laboratory results taken from US8828987B2, “Pyridine amide derivatives as EP4 receptor antagonists” (Rottapharm Biotech S.R.L., priority 2010, dated 2014).

Columns and labels:
human EP4 receptor [1] = biological target: T1, human EP4 receptor (Homo sapiens, UniProt P35408); test: [3H]-Prostaglandin E2 membrane binding assay (human EP4/HEK293 transfectant membranes); details: [3H]-PGE2 1 nM, hEP4/HEK293 membranes; Ki by Cheng-Prusoff; read-out: Binding pKi (converted)
T1 construct: expressed in transfected cells; membrane fraction used
T1 sequence (P35408 whole entry): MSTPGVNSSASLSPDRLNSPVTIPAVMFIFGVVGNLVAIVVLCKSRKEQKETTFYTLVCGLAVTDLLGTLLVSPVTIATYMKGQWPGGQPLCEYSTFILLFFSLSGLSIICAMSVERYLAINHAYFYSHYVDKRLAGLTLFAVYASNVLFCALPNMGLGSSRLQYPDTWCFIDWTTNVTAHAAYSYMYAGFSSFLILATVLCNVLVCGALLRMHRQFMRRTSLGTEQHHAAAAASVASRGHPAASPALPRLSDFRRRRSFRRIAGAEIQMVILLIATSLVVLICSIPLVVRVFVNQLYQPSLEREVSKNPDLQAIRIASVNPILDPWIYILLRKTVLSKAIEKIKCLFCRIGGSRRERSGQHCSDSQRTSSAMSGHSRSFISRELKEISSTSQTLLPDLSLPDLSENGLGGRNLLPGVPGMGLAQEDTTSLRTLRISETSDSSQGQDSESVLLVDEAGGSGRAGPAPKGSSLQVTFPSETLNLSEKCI
Description: (§1) Stable Expression of Human EP4 Receptors in the Human Embryonic Kidney (HEK293) Cell Line
(§2) The cDNA clone of human EP4 receptor (NM_000958.2) was obtained from Invitrogen™: Ultimate™ ORF Clone Collection—Clone ID IOH46525. The coding sequence was subcloned in expression vector pcDNA™6.2/V5-DEST by Gateway technology (Invitrogen™).
(§3) Human embryonic kidney cells (HEK-293) were stably transfected with expression vector for human EP4 receptor in according to the method described in FuGENE®6 Transfection Reagent's manual (Roche Applied Science®).
(§4) Preparation of Membrane Fraction:
(§5) The EP4 transfected cells were grown in Dulbecco's modified Eagle's medium containing 10% fetal bovine serum and 10 μg/ml Blasticidin S HCl (selection medium) at 37° C. in a humidified atmosphere of 5% CO2 in air.
(§6) For the membrane preparation, cells in flask were harvested by hypotonical/mechanical lysis with chilled (4° C.) TE buffer (5 mM TRIS, 5 mM etylenediamine tetra-acetic acid (EDTA), pH 7.4).
(§7) Cells were detached and lysed with 10 ml of hypotonic lysis buffer and by scraping. The cell lysate was vortexed for 30 sec and centrifuged at 40000×g at 4° C. for 22 min.
a) Membrane Binding Assay[3H]-Prostaglandin E2
The membrane pellet was resuspended in the same buffer (5 mM TRIS, 5 mM ethylenediamine tetra-acetic acid (EDTA), pH 7.4), and protein concentration was determined by Bradford method (Bio-Bad® assay).
This membrane preparation was stored at −80° C. freezer until use for binding assay.
([^3H]-PGE2) membranes binding assays toward hEP4 receptors (human EP4/HEK293 transfectant, see above) and hEP2 receptors (human EP2/HEK293 transfectant, purchased from PerkinElmer Inc) were performed in 10 mM MES-KOH buffer pH6, containing 10 mM MgCl2 and 1 mM CaCl2 for EP4 binding assay or 50 mM Tris-Cl, BSA 0.5% for EP2 binding assay (according to supplier indication).
Ten microgram of protein from membrane fractions were incubated in a total volume of 0.1 ml (EP4) or 0.2 ml (EP2) with 1 nM (EP4) or 3 nM (EP2) [^3H]-PGE2 (PerkinElmer Inc, 171 Ci/mmol). In both assays to determine the total binding or non specific binding, 1% DMSO or 1 μM prostaglandin E2 (EP4) or 100 μM (EP2) were added to reaction mixtures, respectively. Incubation was conducted in a polypropylene 96 multiwell for 90 min (EP4) or 60 min (EP2) at room temperature prior to separation of the bound and free radioligand by vacuum manifold rapid filtration on glass fiber filters (Unifilter GFB96, PerkinElmer Inc) pre-soaked in 0.3% polyethyleneimine. Filters were washed with ice cold buffer pH 7.4 (50 mM HEPES, NaCl 500 mM, BSA 0.1% for EP4 binding assay or 50 mM Tris-Cl for EP2 binding assays) and the residual [^3H]-PGE2 binding determined by solid scintillation counter (TopCount, PerkinElmer Inc).
The affinity (Ki) of each compound was calculated according to the Cheng-Prousoff equation: Ki=IC50/(1+([C]/Kd)). Results were expressed as pKi (−log 10 Ki (M)
Compounds of example 1 to 82 were tested according to method of example 83a in a final concentration range from 1 nM to 1 μM.

human EP4 receptor [2] = biological target: T1, human EP4 receptor; test: cAMP assay (AlphaScreen) on human EP4 membrane of transfected cells, antagonism of PGE2; assay type: biochemical; details: HEK293 hEP4 cell membrane stimulated with PGE2 3 nM; read-out: functional IC50
Description: as §1, §2, §3, §4, §5, §6, §7
b) cAMP Assay on Human EP4 Membrane of Transfected Cells.
The assay is based on the competition between endogenous cAMP and exogenously added biotinylated cAMP. The capture of cAMP is achieved by using a specific antibody conjugated to […] beads.
Cell membranes prepared as described above, were resuspended in 1 ml stimulation buffer (HBSS 1×+BSA 0.1%+IBMX 0.5 mM+HEPES 5 mM+MgCl2 10 mM+GTP 1 nM+GDP 10 μM+ATP 100 μM−pH 7.4). Cell membranes were dispensed into white 384-well microplates at final concentration of 1 μg/well and used for the determination of cAMP with the alphascreen cAMP functional assay (EnVision—PerkinElmer). Cell membrane/anti-cAMP Acceptor beads mix (5 μl) and a mixture of analysed compounds (dissolved in 100% DMSO to a final maximal concentration of 0.01% DMSO)/PGE2 (5 μl) were incubated at room temperature (22-23° C.) for 30 min in the dark. The Biotinylated-cAMP and donor beads (15 μl) were dispensed into each well to start the competition reaction. After 1 h incubation RT (22-23° C.) in the dark the plate was read using EnVision platform to determine the cAMP level (excitation: 680 nm; emission: 520,620 nm).
cAMP standard curve (concentration range from 1×10-6 to 1×10-11 M in. log intervals) with a negative control (no cAMP) a positive control:forskolin 10 μM
Antagonism studies were performed stimulating HEK293 cell membrane with PGE2 3 nM. The AlphaScreen signal is plotted as a function of log concentration of cAMP and functional IC50 is determined. IC50 value is calculated by linear regression.
Some compounds were tested according to method of example 83b.

Ki (human EP4 receptor [1]) | IC50 (human EP4 receptor [2]) | SMILES
12.6 nM | 70 nM | O=C(O)c1ccc(C2(NC(=O)c3cc(Cl)cnc3N3CC(Oc4ccc(F)cc4)C3)CC2)cc1 [E 15, 4-(1-(5-chloro-2-(3-(4-fluorophenoxy)azetidin-1-yl)nicotinamido)cyclopropyl)benzoic acid]
3.16 nM | 35 nM | O=C(O)c1ccc(C2(NC(=O)c3cc(C(F)(F)F)cnc3N3CC(Oc4ccc(F)c(C(F)(F)F)c4)C3)CC2)cc1 [E 42, 4-(1-(2-(3-(4-fluoro-3-(trifluoromethyl)phenoxy)azetidin-1-yl)-5-(trifluoromethyl)nicotinamido)cyclopropyl)benzoic acid]
7.94 nM | 47 nM | O=C(O)c1ccc(C2(NC(=O)c3cc(Cl)cnc3N3CC(Nc4cccc(C(F)(F)F)c4)C3)CC2)cc1 [E 31, 4-(1-(5-chloro-2-(3-((3-(trifluoromethyl)phenyl)amino)azetidin-1-yl)nicotinamido)cyclopropyl)benzoic acid]
25.1 nM | 76 nM | O=C(O)c1ccc(C2(NC(=O)c3cc(Cl)cnc3N3CC(Nc4cccc(F)c4)C3)CC2)cc1 [E 32, 4-(1-(5-chloro-2-(3-((3-fluorophenyl)amino)azetidin-1-yl)nicotinamido)cyclopropyl)benzoic acid]
31.6 nM | 24 nM | O=C(O)c1ccc(C2(NC(=O)c3cc(Cl)cnc3N3CCC(COc4cccc(F)c4)C3)CC2)cc1 (stereo not shown) [E 76, 4-(1-(5-chloro-2-(3-((3-fluorophenoxy)methyl)pyrrolidin-1-yl)nicotinamido)cyclopropyl)benzoic acid]
79.4 nM | 96.5 nM | O=C(O)c1ccc(C2(NC(=O)c3cc(Cl)cnc3N3CCC(Oc4ccccc4)C3)CC2)cc1 (single isomer, unassigned) [E 60]
7.94 nM | 72 nM | O=C(O)c1ccc(C2(NC(=O)c3cc(C(F)(F)F)cnc3N3CC(Oc4ccc(F)cc4)C3)CC2)cc1 [E 39, 4-(1-(2-(3-(4-fluorophenoxy)azetidin-1-yl)-5-(trifluoromethyl)nicotinamido)cyclopropyl)benzoic acid]
25.1 nM | 46 nM | O=C(O)c1ccc(C2(NC(=O)c3cc(Cl)cnc3N3CCC(Oc4ccccc4)C3)CC2)cc1 (single isomer, unassigned) [E 62]
25.1 nM | 75 nM | O=C(O)c1ccc(C2(NC(=O)c3cc(F)cnc3N3CC(Oc4cccc(Cl)c4)C3)CC2)cc1 [E 54, 4-(1-(5-fluoro-2-(3-(3-chlorophenoxy)azetidin-1-yl)nicotinamido)cyclopropyl)benzoic acid]
39.8 nM | 43 nM | O=C(O)c1ccc(C2(NC(=O)c3cc(Cl)cnc3N3CCC(Oc4ccc(F)cc4)C3)CC2)cc1 (single isomer, unassigned) [E 66, 4-(1-(5-chloro-2-(3-(4-fluorophenoxy)pyrrolidin-1-yl)nicotinamido)cyclopropyl)benzoic acid]
25.1 nM | 187 nM | O=C(O)c1ccc(C2(NC(=O)c3cc(Cl)cnc3N3CC(Oc4ccc(C(F)(F)F)cc4)C3)CC2)cc1 [E 13, 4-(1-(5-chloro-2-(3-(4-(trifluoromethyl)phenoxy)azetidin-1-yl)nicotinamido)cyclopropyl)benzoic acid]
5.01 nM | 7.7 nM | O=C(O)c1ccc(C2(NC(=O)c3cc(C(F)(F)F)cnc3N3CC(Oc4cccc(Cl)c4)C3)CC2)cc1 [E 41, 4-(1-(2-(3-(3-chlorophenoxy)azetidin-1-yl)-5-(trifluoromethyl)nicotinamido)cyclopropyl)benzoic acid]
31.6 nM | 126 nM | O=C(O)c1ccc(C2(NC(=O)c3cc(F)cnc3N3CC(Oc4cccc(OC(F)(F)F)c4)C3)CC2)cc1 [E 55, 4-(1-(5-fluoro-2-(3-(3-(trifluoromethoxy)phenoxy)azetidin-1-yl)nicotinamido)cyclopropyl)benzoic acid]
5.01 nM | 27 nM | O=C(NC1(c2ccc(-c3nnn[nH]3)cc2)CC1)c1cc(Cl)cnc1N1CC(Oc2cccc(F)c2)C1 [E 82, N-(1-(4-(1H-tetrazol-5-yl)phenyl)cyclopropyl)-5-chloro-2-(3-(3-fluorophenoxy)azetidin-1-yl)nicotinamide]
39.8 nM | 99 nM | O=C(O)c1ccc(C2(NC(=O)c3cc(Cl)cnc3N3CC[C@H](Oc4cccc(F)c4)C3)CC2)cc1 [E 80, (S)-4-(1-(5-chloro-2-(3-(3-fluorophenoxy)pyrrolidin-1-yl)nicotinamido)cyclopropyl)benzoic acid]
10 nM | 70 nM | O=C(O)c1ccc(C2(NC(=O)c3cc(Cl)cnc3N3CC(Oc4ccc(F)c(F)c4)C3)CC2)cc1 [E 20, 4-(1-(5-chloro-2-(3-(3,4-difluorophenoxy)azetidin-1-yl)nicotinamido)cyclopropyl)benzoic acid]
10 nM | 17.5 nM | O=C(O)c1ccc(C2(NC(=O)c3cc(C(F)(F)F)cnc3N3CC(Oc4ccc(F)cc4F)C3)CC2)cc1 [E 44, 4-(1-(2-(3-(2,4-difluorophenoxy)azetidin-1-yl)-5-(trifluoromethyl)nicotinamido)cyclopropyl)benzoic acid]
